Structures can show the parent of a compound that is named as a salt.
Experiment: In vitro inhibition of calcium phosphate crystallization in human plasma (spectrophotometric)
Assay type: biochemical
Conditions: 0-100 μM, 1.5 mM phosphate, 12.5 mM calcium, pH 7.4, 30 min, rt, read-out: Relative Potency (EC50, inhibition of calcium phosphate crystallization)
Protocol: The in vitro efficacy of the IP4-4,6 substituted derivatives (e.g., Compounds 1 to 53) of the invention on the inhibition of calcium phosphate crystallization in human plasma samples was evaluated according to a spectrophotometric assay previously described in the art (Ferrer M, et al., Sci Rep 2017; 7:6858, doi:10.1038/s41598-017-07203-x).
A 96-well plate was employed. Plasma was spiked (1 volume of the IP4-4,6 substituted derivatives of the invention per 19 volumes of plasma) with increasing concentrations of the derivatives in the range of 0-100 μM. Plasma was then centrifuged at 10,000 g at rt and subsequently mixed with a mixture of 5 mM hydrogen phosphate and 41.67 mM calcium to attain final concentrations of 1.5 mM phosphate and 12.5 mM calcium, respectively. All reagent solutions were filtered, and pH adjusted to 7.4.
Crystallization of calcium phosphate was monitored spectrophotometrically for 30 min at rt by measuring the increments in absorbance at 550 nm using the Biotek Powerwave XS Microplate spectrophotometer (BioTek Instruments, Inc., Winooski, VT, US). The plate was incubated at rt in an orbital shaker and absorbance measured every 3 min.
Plasma crystallization was assessed based on slope measurement in the linear range between 6 and 24 min from plots of increase in absorbance versus logarithm of time. The efficacy of different myo-inositol phosphates derivatives in preventing in vitro formation of calcium phosphate crystals was assessed in human plasma samples using the slopes obtained between 6- and 24-min. Inhibition of crystallization was measured by comparing the slopes of the control sample (blank plasma) with those of samples containing the inhibitor as shown below: […]

`O=P(O)(O)O[C@@H]1[C@@H](OCCC2CCCC2)[C@H](OP(=O)(O)O)[C@H](OP(=O)(O)O)[C@H](OP(=O)(O)O)[C@H]1OCCC1CCCC1` [Compound 29, 4,6-O-bis(2-cyclopentylethyl)-myo-inositol-1,2,3,5-tetrakis(phosphate) octasodium salt] and `O=C(NCCCOC1C(OP(=O)(O)O)C(OCCCNC(=O)NC2CCCC2)C(OP(=O)(O)O)C(OP(=O)(O)O)C1OP(=O)(O)O)NC1CCCC1` (stereo not drawn) [Compound 47, 4,6-O-bis(3-(3-cyclopentylureido)propyl)-myo-inositol-1,2,3,5-tetrakis(phosphate) octasodium salt] cannot be ordered by EC50: ≤ 5 µM for the first, ≤ 5 µM for the second.

`CCCNC(=O)NCCCCCOC1C(OP(=O)(O)O)C(OCCCCCNC(=O)NCCC)C(OP(=O)(O)O)C(OP(=O)(O)O)C1OP(=O)(O)O` (stereo not drawn) [Compound 30, 4,6-O-bis(5-(3-propylureido)pentyl)-myo-inositol-1,2,3,5-tetrakis(phosphate) octasodium salt] and `O=C(NCCCCCOC1C(OP(=O)(O)O)C(OCCCCCNC(=O)c2cccs2)C(OP(=O)(O)O)C(OP(=O)(O)O)C1OP(=O)(O)O)c1cccs1` (stereo not drawn) [Compound 49, 4,6-O-bis(5-(thiophene-2-carboxamido)pentyl)-myo-inositol-1,2,3,5-tetrakis(phosphate) octasodium salt] cannot be ordered by EC50: ≤ 5 µM for the first, 5 to 10 µM for the second.

`O=C(O)CCn1cc(CO[C@@H]2[C@@H](OP(=O)(O)O)[C@H](OCc3cn(CCC(=O)O)nn3)[C@@H](OP(=O)(O)O)[C@@H](OP(=O)(O)O)[C@H]2OP(=O)(O)O)nn1` [Compound 31, 4,6-O-bis((1-(2-carboxyethyl)-1H-1,2,3-triazol-4-yl)methyl)-myo-inositol-1,2,3,5-tetrakis(phosphate) decasodium salt] and `COCc1cn(CCCCOC2C(OP(=O)(O)O)C(OCCCCn3cc(COC)nn3)C(OP(=O)(O)O)C(OP(=O)(O)O)C2OP(=O)(O)O)nn1` (stereo not drawn) [Compound 37, 4,6-O-bis(4-(4-(methoxymethyl)-1H-1,2,3-triazol-1-yl)butyl)-myo-inositol-1,2,3,5-tetrakis(phosphate) octasodium salt] cannot be ordered by EC50: ≤ 5 µM for the first, 5 to 10 µM for the second.

`COCCCCCCn1cc(COC2C(OP(=O)(O)O)C(OCc3cn(CCCCCCOC)nn3)C(OP(=O)(O)O)C(OP(=O)(O)O)C2OP(=O)(O)O)nn1` (stereo not drawn) [Compound 33, 4,6-O-bis((1-(6-methoxyhexyl)-1H-1,2,3-triazol-4-yl)methyl)-myo-inositol-1,2,3,5-tetrakis(phosphate) octasodium salt] and `COCc1cn(CCCCCCOC2C(OP(=O)(O)O)C(OCCCCCCn3cc(C(=O)O)nn3)C(OP(=O)(O)O)C(OP(=O)(O)O)C2OP(=O)(O)O)nn1` (stereo not drawn) [Compound 41, 4-O-(6-(4-carboxy-1H-1,2,3-triazol-1-yl)hexyl)-6-O-(6-(4-(methoxymethyl)-1H-1,2,3-triazol-1-yl)hexyl)-myo-inositol-1,2,3,5-tetrakis(phosphate) nonasodium salt] cannot be ordered by EC50: 5 to 10 µM for the first, ≤ 5 µM for the second.

First: COc1ccc(CCCOC2C(OP(=O)(O)O)C(OCCCc3ccc(OC)cc3)C(OP(=O)(O)O)C(OP(=O)(O)O)C2OP(=O)(O)O)cc1 (stereo not drawn) [Compound 43, 4,6-O-bis(3-(4-methoxyphenyl)propyl)-myo-inositol-1,2,3,5-tetrakis(phosphate) octasodium salt]
Second: O=P(O)(O)OC1C(OCCCc2cccc(C(F)(F)F)c2)C(OP(=O)(O)O)C(OP(=O)(O)O)C(OP(=O)(O)O)C1OCCCc1cccc(C(F)(F)F)c1 (stereo not drawn) [Compound 44, 4,6-O-bis(3-(3-(trifluoromethyl)phenyl)propyl)-myo-inositol-1,2,3,5-tetrakis(phosphate) octasodium salt]
The EC50 of the first is lower: 5 to 10 µM for the first, > 10 µM for the second. The first is the more potent here.

First: O=C(NCCCCCOC1C(OP(=O)(O)O)C(OCCCCCNC(=O)c2ccccc2)C(OP(=O)(O)O)C(OP(=O)(O)O)C1OP(=O)(O)O)c1ccccc1 (stereo not drawn) [Compound 48, 4,6-O-bis(5-benzamidopentyl)-myo-inositol-1,2,3,5-tetrakis(phosphate) octasodium salt]
Second: O=C(O)CCCOC1C(OP(=O)(O)O)C(OCCCC(=O)O)C(OP(=O)(O)O)C(OP(=O)(O)O)C1OP(=O)(O)O (stereo not drawn) [Compound 52, 4,6-O-bis(3-carboxypropyl)-myo-inositol-1,2,3,5-tetrakis(phosphate) decasodium salt]
The EC50 of the first is higher: > 10 µM for the first, ≤ 5 µM for the second.

`CCCCCOC1C(OP(O)(O)=S)C(OCCCCC)C(OP(O)(O)=S)C(OP(O)(O)=S)C1OP(O)(O)=S` (stereo not drawn) [Compound 50, 4,6-O-dipentyl-myo-inositol-1,2,3,5-tetrakis(thiophosphate) octasodium salt] and `COCCCCCOC1C(OP(O)(O)=S)C(OCCCCCOC)C(OP(O)(O)=S)C(OP(O)(O)=S)C1OP(O)(O)=S` (stereo not drawn) [Compound 51, 4,6-O-bis(5-Methoxypentyl)-myo-inositol-1,2,3,5-tetrakis(thiophosphate) octasodium salt] cannot be ordered by EC50: > 10 µM for the first, > 10 µM for the second.

For `C#CCOC1C(OP(=O)(O)O)C(OCC#C)C(OP(=O)(O)O)C(OP(=O)(O)O)C1OP(=O)(O)O` (stereo not drawn) [Compound 53, 4,6-O-Dipropargyl-myo-inositol-1,2,3,5-tetrakis(phosphate) octasodium salt], the EC50 was ≤ 5 µM.

Source: US20260337212A1, “IP4-4,6 SUBSTITUTED DERIVATIVE COMPOUNDS FOR USE IN THE TREATMENT, INHIBITION OF PROGRESSION, AND PREVENTION OF ECTOPIC CALCIFICATION” (SANIFIT THERAPEUTICS, S.A., priority 2022, published 2026)
